From patent publication US20100285145A1, “GPR 119 MODULATORS” (PFIZER INC, priority 2009, published 2010)

Assays:
male Wistar rats [1] = assay: Intraperitoneal glucose tolerance test (IPGTT); assay type: in vivo; details: rat, 20 mg/kg in 0.5% methylcellulose, IP glucose administered 30 minutes post dose
male Wistar rats [2] = assay: Oral glucose tolerance test (OGTT); assay type: in vivo; details: rat; for Glucose 0-120 min AUC (percent vehicle response): 30 min before glucose 2 g/kg
From the text: All in vivo protocols were approved by the Pfizer's Animal Welfare Committee. Naive male Wistar rats (225-250 g body weight on receipt) were obtained from Harlan Laboratories (Indianapolis, Ind.), were pair housed in hanging plastic caging on Sani-chips sawdust bedding, and fed ad libitum on Purina 5001 chow. The rats were housed under a controlled light cycle (light from 6 am to 6 pm) at controlled temperature and humidity conditions. Rats were acclimated to the facility for at least 1 week prior to study.
Example 17 was formulated in 0.5% methylcellulose. The highest dose (30 mg/kg) was formulated at 6 mg/mL for administration at 5 mL/kg, the required bulk was added to a mortar and ground with a small amount of 0.5% methylcellulose to a smooth paste with a pestle, additional 0.5% methylcellulose was added until the mixture flowed, when it was transferred to a stirred container, the mortar was rinsed several times with remaining quantity of 0.5% methylcellulose and capped to prevent evaporation. The suspension was stirred continuously overnight with a magnetic stir bar prior to study, and the lower doses were diluted from the 6 mg/mL suspension using the appropriate volume of 0.5% methylcellulose. All dosing suspensions were stirred throughout the dosing procedure.
Rats were stratified (n=8/group) to vehicle (0.5% methylcellulose) or one of three dose groups (1, 5, or 30 mg/kg) according to body weight on day-1 to ensure that each group had equal group mean body weight values. The rats were fasted overnight in clean cages overnight (˜15 hours) prior to the oral glucose tolerance test. Body weights were recorded on the morning of the study (post fasting) for dose volume calculation. Blood samples were collected from all rats prior to dosing with vehicle or test compound via oral gavage (5 mL/kg). Thirty minutes later rats were bled and immediately dose with an oral dose of glucose (2 g/kg). The rats were re-bled at 15, 30, 60 and 120 minutes post-glucose load. Blood samples (˜250 μL/time point) were collected into EDTA tubes with aprotinin/DPPIVi (0.6 TIU/2 μL per mL whole blood). Blood tubes were inverted several times immediately following collection and placed on ice, then spun at 14,000 rpm in a refrigerated centrifuge for 5 minutes. Plasma samples were analyzed for glucose levels using a Roche 912 clinical chemistry analyzer, plasma insulin concentrations were determined using the Alpco Ultra-Sensitive Insulin Rat ELISA, and total amide GLP-1 concentrations were determined using MSD ELISA kit.
The results are presented as mean+/−SEM (standard error of the mean) unless otherwise stated. Statistical evaluation of the data is carried out using one-way analysis of variance (ANOVA) with appropriate post-hoc analysis between vehicle and treatment group. Differences compared to vehicle with a p>0.05 were considered statistically significant using Dunnett's T-test.

Compound	Insulin AUC (0-60 min) (percent vehicle response) (male Wistar rats [1])	Insulin 0-60 min AUC (percent vehicle response) (male Wistar rats [2]; 1 mg/kg oral)	Total Amide GLP-1 0-120 min AUC (percent vehicle response) (male Wistar rats [2]; 1 mg/kg oral)	Glucose 0-120 min AUC (percent vehicle response) (male Wistar rats [2]; 1 mg/kg oral)	Insulin 0-60 min AUC (percent vehicle response) (male Wistar rats [2]; 5 mg/kg oral)	Total Amide GLP-1 0-120 min AUC (percent vehicle response) (male Wistar rats [2]; 5 mg/kg oral)	Glucose 0-120 min AUC (percent vehicle response) (male Wistar rats [2]; 5 mg/kg oral)	Insulin 0-60 min AUC (percent vehicle response) (male Wistar rats [2]; 30 mg/kg oral)	Total Amide GLP-1 0-120 min AUC (percent vehicle response) (male Wistar rats [2]; 30 mg/kg oral)	Glucose 0-120 min AUC (percent vehicle response) (male Wistar rats [2]; 30 mg/kg oral)
CC(C)OC(=O)N1CCC(Oc2cc(N3CCc4cc(S(C)(=O)=O)ccc43)ncn2)CC1 [Example 3, Isopropyl 4-({6-[5-(methylsulfonyl)-2,3-dihydro-1H-indol-1-yl]pyrimidin-4-yl}oxy)piperidine-1-carboxylate]	104									
Cc1c(O[C@H]2CCN(C(=O)OC3(C)CC3)C[C@H]2F)ncnc1N1CCc2ncccc21 [Example 17, 1-Methylcyclopropyl (3R,4S)-4-{[6-(2,3-dihydro-1H-pyrrolo[3,2-b]pyridin-1-yl)-5-methylpyrimidin-4-yl]oxy}-3-fluoropiperidine-1-carboxylate]		90	147	102	142	+184 percent vehicle response	95	112	150	++90 percent vehicle response
